Experimental findings from patent US20070149547A1, “Bipyridyl amides as modulators of metabotropic glutamate receptor-5” (priority 2004, published 2007) are described below.

Molecules are shown by their SMILES.

This experiment deals with T1, hmGluR5a receptor (Homo sapiens, UniProt P41594).
T1 construct: expressed in transfected cells; host or cells: HEK293 cells (hm5a cell line)
T1 sequence (P41594 21-1180 isoform P41594-2 limits assumed): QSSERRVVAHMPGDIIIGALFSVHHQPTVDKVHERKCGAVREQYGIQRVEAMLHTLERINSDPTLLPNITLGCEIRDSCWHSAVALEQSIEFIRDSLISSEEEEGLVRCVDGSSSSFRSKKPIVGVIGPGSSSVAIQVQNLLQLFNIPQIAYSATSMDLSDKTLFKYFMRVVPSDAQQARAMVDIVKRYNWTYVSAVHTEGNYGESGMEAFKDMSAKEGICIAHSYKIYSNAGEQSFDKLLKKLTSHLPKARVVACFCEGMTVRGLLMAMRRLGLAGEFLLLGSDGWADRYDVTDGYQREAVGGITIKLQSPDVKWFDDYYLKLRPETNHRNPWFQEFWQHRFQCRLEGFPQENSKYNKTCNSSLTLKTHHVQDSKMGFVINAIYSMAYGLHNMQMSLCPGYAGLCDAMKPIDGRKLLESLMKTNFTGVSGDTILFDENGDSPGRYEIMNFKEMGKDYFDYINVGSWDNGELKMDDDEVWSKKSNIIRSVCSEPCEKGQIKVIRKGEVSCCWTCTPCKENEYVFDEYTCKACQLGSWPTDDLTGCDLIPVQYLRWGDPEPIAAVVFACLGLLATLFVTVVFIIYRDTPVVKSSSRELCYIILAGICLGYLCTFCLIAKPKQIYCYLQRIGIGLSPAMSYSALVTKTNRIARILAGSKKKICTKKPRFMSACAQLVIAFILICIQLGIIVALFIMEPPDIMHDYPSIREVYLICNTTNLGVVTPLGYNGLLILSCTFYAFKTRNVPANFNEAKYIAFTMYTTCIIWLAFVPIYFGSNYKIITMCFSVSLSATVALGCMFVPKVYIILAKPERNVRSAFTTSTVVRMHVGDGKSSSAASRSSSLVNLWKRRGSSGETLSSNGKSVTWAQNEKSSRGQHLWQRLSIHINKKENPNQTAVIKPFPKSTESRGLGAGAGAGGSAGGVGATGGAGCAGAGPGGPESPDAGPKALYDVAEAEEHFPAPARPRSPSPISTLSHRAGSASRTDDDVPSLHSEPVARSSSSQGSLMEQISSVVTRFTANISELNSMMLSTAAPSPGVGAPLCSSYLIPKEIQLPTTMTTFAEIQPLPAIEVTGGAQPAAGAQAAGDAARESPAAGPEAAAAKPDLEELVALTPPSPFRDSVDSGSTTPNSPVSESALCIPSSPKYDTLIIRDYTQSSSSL
In words: Calcium flux assay (fura-2, glutamate-evoked [Ca2+]i). The class given is cell-based. The conditions noted are these: assay not given; follows the calcium flux / PI statement; read-out: IC50 (mGluR5 inhibitory activity). As for the experimental part:
The compounds of this invention were tested against the hmGluR5a receptor stably expressed in mouse fibroblast Ltk^− cells (the hmGluR5a/L38-20 cell line) and activity was detected by changes in [Ca^++]i, measured using the fluorescent Ca^++-sensitive dye, fura-2. InsP assays were performed in mouse fibroblast Ltk^− cells (LM5a cell line) stably expressing hmGluR5a. The assays described in International Patent Publication WO 0116121 can be used.
The activity of compounds was examined against the hmGluR5a receptor stably expressed in human embryonic kidney HEK293 cells (the hmGluR5a cell line designated hm5a). See generally Daggett et al., Neuropharmacology 34:871-886 (1995). Receptor activity was detected by changes in intracellular calcium ([Ca^2+]i) measured using the fluorescent calcium-sensitive dye, fura-2. The hm5a cells were plated onto 96-well plates, and loaded with 3 µM fura-2 for 1 h. Unincorporated dye was washed from the cells, and the cell plate was transferred to a 96-channel fluorimeter (SIBIA-SAIC, La Jolla, Calif.) which is integrated into a fully automated plate handling and liquid delivery system. Cells were excited at 350 and 385 nm with a xenon source combined with optical filters. Emitted light was collected from the sample through a dichroic mirror and a 510 nm interference filter and directed into a cooled CCD camera (Princeton Instruments). Image pairs were captured approximately every 1 s, and ratio images were generated after background subtraction. After a basal reading of 20 s, an EC80 concentration of glutamate (10 µM) was added to the well, and the response evaluated for another 60 s. The glutamate-evoked increase in [Ca′]i in the presence of the screening compound was compared to the response of glutamate alone (the positive control).
The term IC50 denotes the concentration at which inhibition is half-maximal. For the compound `N#Cc1cccc(NC(=O)c2nc(Cl)cnc2N)n1` [Example 29, 3-Amino-6-chloro-N-(6-cyanopyridin-2-yl)pyrazine-2-carboxamide], the concentration for half-maximal inhibition (IC50) was 0.5 µM.

As for `Nc1nc(C(F)(F)F)cnc1C(=O)Nc1ccccn1` [Example 38, 3-Amino-N-pyridin-2-yl-5-(trifluoromethyl)pyrazine-2-carboxamide], the IC50 was 1.3 µM.

On to `Cc1cccc(C(=O)Nc2cccc(-c3ccccc3)n2)n1` [Example 58, 6-Methyl-N-(6-phenylpyridin-2-yl)pyridine-2-carboxamide], for which the IC50 came to 3 µM.
